# Source: PubChem BioAssay AID1996
# Non-standard residues stand in square brackets, D forms with d. Residues, ends and D or L forms follow the SMILES beside them. ξ: configuration not given here. *: point of attachment. ξN = NC(=O)CC(N)C(=O)O; Boc = CC(C)(C)OC(=O)*
# Conditions: buffer; pH 7.4; 200.0 µM
row,SMILES,solubility kinetic [mg/mL]
1,C[C@H](NC(=O)c1ccc(C(C)(C)C)cc1)C(=O)N1CCOCC1,> 0.0478
2,O=C(NCc1ccncc1)c1cc(C(=O)C2CC2)c[nH]1,0.0362
3,CC(=O)Nc1ccc(OCC(=O)NC(C)c2ccc(F)cc2)cc1 (centres undefined),> 0.0496
4,CCOC(=O)C1CCCN(CCSc2ccc(C)cc2)C1.Cl (centres undefined),0.0413
5,CC(NCCC(c1ccccc1)c1ccccc1)c1ccccc1.Cl (centres undefined),> 0.0528
6,CC(=O)NCCc1nc2cc(NC(=O)c3ccc(Cl)cc3)ccc2n1C,0.0357
7,O=C(NCCCCCCNC(=O)c1ccccc1O)c1ccccc1O,0.0012
8,CCCS(=O)(=O)c1cscc1NC(=O)c1c(-c2c(F)cccc2Cl)noc1C,0.0009
9,COc1ccc(CSc2nc(O)cc(=O)n2CC(C)C)cc1F,> 0.0508
10,COc1ccc(CCNC(=O)c2cc(=O)c3cc(C)ccc3o2)cc1,0.0066
11,COC(=O)CN(C#N)c1nc(N(C)C)nc(N(C)C)n1,0.0312
12,O=C(Cc1ccc(Cl)cc1)Nc1cccnc1,0.0233
13,CCOC(=O)c1cc(=O)[nH]c2ccccc12,0.0306
14,O=C(Nc1c(-c2cccs2)nc2ccccn12)c1ccccc1F,0.0471
15,O=C(NC(=S)Nc1ccc(O)cc1)C1CCCC1,> 0.0397
16,COC(=O)C(C)Oc1ccc(-c2nccc(-c3ccccn3)n2)cc1 (centres undefined),0.0033
17,CCCOc1ccc(C(=O)NCC(C)(C)N2CCOCC2)cc1,> 0.0481
18,COc1cc(S(=O)(=O)NCCCn2ccnc2)ccc1F,0.0462
19,Cc1nc2ccccc2n1C(C)c1ccccc1 (centres undefined),> 0.0354
20,Cn1ncc(C(=O)Nc2ccc(Cl)cc2)c1C(F)(F)F,> 0.0456
21,Cc1sc2ncnc(SCC(=O)Nc3cccc(S(N)(=O)=O)c3)c2c1C,0.0053

row,SMILES,solubility kinetic [mg/mL]
1,CC(C)(CO)NCc1c(OCc2ccc(Cl)cc2)ccc2ccccc12.Cl,0.0571
2,O/N=C1\CCCc2c1nc(-c1ccccc1F)n2O,> 0.0392
3,CCCCNC(=O)O/N=C(\N)CS(=O)(=O)C(C)(C)C,0.0365
4,CCOc1ccc(OCCC(=O)OCC(=O)NCc2ccccc2)cc1,0.0463
5,Nc1ccc2nc(SCc3ccccc3F)sc2c1,0.016
6,O=C(NCc1ccccc1)c1csc(-c2cccnc2)n1,> 0.0443
7,C=CCOc1ccc(CN(C)C(=O)C2CCCO2)cc1 (centres undefined),> 0.0413
8,CSc1nc2sc3c(c2c(=O)n1C)CCC3,0.0026
9,Cc1ccc(C(=O)NCCn2ccc3ccccc32)cc1[N+](=O)[O-],0.0039
10,O=C(Cc1cccs1)Nc1ccccc1,> 0.0326
11,CC1=NN(c2nc(-c3ccc(C#N)cc3)cs2)C(=O)C1,> 0.0423
12,C=CCNC(=O)CC12CC3CC(C1)CC(CC(=O)NCC=C)(C3)C2,> 0.0496
13,CN(C)S(=O)(=O)c1ccc(C(=O)OCCc2ccccc2)cc1,0.0009
14,CC1(C)Cc2nc3sc4c(SCC(=O)O)ncnc4c3cc2CO1,0.0532
15,CC(=O)NCCC(=O)Nc1nc(-c2ccc3ccccc3c2)cs1,0.0065
16,CCN1C(=O)c2cccc3c(S(=O)(=O)Nc4ccccc4O)ccc1c23,0.0005
17,COC(=O)c1ccsc1NS(=O)(=O)c1ccccc1,0.0441
18,CCCNC(=O)Cn1sc2nc(C)cc(C)c2c1=O,> 0.0419
19,COCC(=O)Nc1nc(-c2ccc(-c3ccccc3)cc2)cs1,0.0044
20,Cl.Clc1ccc(NCc2ccsc2)cc1,0.0027
21,CC(C)c1ccc(OCC(=O)NC2=NCCS2)cc1,0.0158

row,SMILES,solubility kinetic [mg/mL]
1,CC#CC[N+](C)(C)CC(=O)c1ccccc1.[Br-],> 0.0444
2,C=CCNc1nc(S(=O)Cc2ccc(C)cc2)nc2c1CCCC2 (centres undefined),> 0.0512
3,CCOc1cc(/C=C\[N+](=O)[O-])ccc1OCC(=O)N1CCOCC1,0.0245
4,CN(C)C(=O)Oc1cccc([N+](C)(C)C)c1.[Br-],> 0.0455
5,O=C1CC(=O)N(c2ccc(Cl)cc2)C(=O)N1,> 0.0358
6,NS(=O)(=O)c1ccc(CCNC(=O)c2ccc3c(c2)OCO3)cc1,> 0.0523
7,O=[N+]([O-])c1cccc2c1ccc1ncccc12,0.0013
8,CN(CC(=O)Nc1sccc1C(N)=O)S(=O)(=O)c1ccc(Cl)cc1,0.0087
9,CC(C)(C)NC(=O)CSc1nc2ccccc2c(=O)[nH]1,0.0309
10,CCCC(=O)Nc1c(-c2cccc(OC)c2)c(=O)c2ccccc2n1C,> 0.0526
11,COc1ccc2[nH]cc(CCNC(=S)NCCc3ccccc3)c2c1,0.0263
12,COc1ccc(Nc2nc(-c3ccccc3O)nc3ccccc23)cc1,< 0.0002
13,Cc1ccc(NC(=O)/C=C/C(=O)O)c(NC(=O)c2ccccc2)c1,> 0.0487
14,CCN(CC)CCN(C(=O)/C=C/c1cccs1)c1nc2ccc(F)cc2s1.Cl,< 0.0003
15,Cc1[nH]c(=O)[nH]c(=O)c1S(=O)(=O)Nc1ccc(F)c([N+](=O)[O-])c1,> 0.0516
16,CC(=O)NC(C)CCc1ccccc1 (centres undefined),> 0.0287
17,Cc1ccc(S(=O)(=O)Nc2cnc3ccccc3c2)cc1,> 0.0448
18,CC(C)c1c(O)nc(SCC(=O)N2CCCCC2)[nH]c1=O,> 0.0467
19,CCc1cc(C(=O)c2ccc(OC)cc2)c(N)s1,0.0209
20,CCOc1ccccc1NC(=O)COc1ccc2c(c1)OCO2,< 0.0007
21,Cc1cc(N(C)C)nc(Nc2ccccc2)n1,> 0.0342

row,SMILES,solubility kinetic [mg/mL]
1,CC(C)Oc1ccc(OCCn2c(=S)[nH]c3c(N)ncnc32)cc1,0.0452
2,CCOC(=O)CNC(=O)C(CC(N)=O)NC(=O)OC(C)(C)C (centres undefined) (Boc-[ξN]-Gly-OEt),> 0.0476
3,O/N=C\c1cccn1-c1nccs1,> 0.029
4,Cc1cccc(NC(=O)C2Cc3ccccc3O/C2=N\O)c1 (centres undefined),0.0012
5,N#Cc1cnc(N)c(Br)c1,0.0278
6,N#C/C(=C\c1ccccc1OCC(=O)O)c1nc2ccccc2[nH]1,> 0.0479
7,COc1ccc(CCNC(=O)c2ccccc2)cc1,> 0.0383
8,Cc1ccc(CNS(=O)(=O)c2c(C)n(C)c(=O)n(C)c2=O)cc1,> 0.0506
9,CNC(=S)Nc1ccc(OC(F)(F)F)cc1,0.0354
10,C=CCNC(=S)NNC(=O)C(CC(C)C)CC(C)O (centres undefined),> 0.0431
11,CCn1c(=NC(=O)COc2ccccc2)sc2cccc(F)c21,< 0.0004
12,COc1cc(/C=C/c2nc3ccccc3c(=O)[nH]2)ccc1OC(F)F,0.0019
13,CC(=O)NCc1ccc(-c2nc3ccccc3s2)cc1,0.0086
14,Cc1ccc(Nc2ccncc2S(N)(=O)=O)cc1,0.033
15,O=C(Nc1ccc(O)cc1)/C(=C\C=C\c1ccccc1)NC(=O)c1ccccc1,0.0149
16,COc1ccc(CNC(=O)C(C)OC(=O)c2cccc(N(C)C)c2)cc1 (centres undefined),0.0378
17,COc1ccc(CNC(=O)Nc2cc(C)cc(C)c2)cc1,0.0008
18,COCCNC(=O)/C(C#N)=C/c1cccc(OCc2ccccc2)c1,0.0212

# Other lines, results leading:
row,solubility kinetic [mg/mL],SMILES
1,0.0064,CC(=O)c1c(C)[nH]c(C(=O)CN2CCN(S(=O)(=O)c3ccccc3F)CC2)c1C
2,> 0.0401,O=S(=O)(c1cccc2nonc12)N1CCCCC1
3,> 0.058,COc1ccccc1CC(=O)OCC(=O)N1CCN(c2ccc(F)cc2)CC1
4,< 0.0004,CCCCc1nc2cc(Cl)ccc2o1
5,> 0.0451,O=C1CCCN1CCCNS(=O)(=O)c1cccc(F)c1
6,> 0.0499,O=[N+]([O-])c1cc(S(=O)(=O)N2CCCC2)ccc1SCCO
7,> 0.0531,O=C(Cc1ccc(Br)cc1)OCC(=O)N1CCCCCC1
8,> 0.0463,N#CC(C#N)=C1C(=O)N(CCN2CCOCC2)c2ccccc21
9,0.0078,Cc1ccc(CC2CC(=O)N(c3ccc(C)cc3)C2=O)cc1 (centres undefined)
10,> 0.0482,CCOC(=O)N1CCN(C(=O)Cc2ccccc2[N+](=O)[O-])CC1
11,> 0.0437,CC(C)N1CC(C(=O)Nc2cccc([N+](=O)[O-])c2)CC1=O (centres undefined)
12,> 0.0396,NC(=O)c1ccc(N2CCNC(=O)C2)c([N+](=O)[O-])c1
13,0.0019,O=C1COc2ccc(N3C(=O)c4ccccc4C3=O)cc2N1
14,0.0242,Cc1cc(C(=O)NC2CCCCCC2)c2ccccc2n1
15,> 0.0478,COc1ccc(/C=C/C(=O)ONC2=NCCCCC2)cc1OC
16,> 0.0571,CC(=O)N1CCN(CC(=O)Nc2ccccc2C(=O)Nc2ccccc2)CC1
17,> 0.0514,COc1cc(C2C(C#N)=C(SC)NC3=C2C(=O)CCC3)ccc1O (centres undefined)
18,> 0.0264,Nc1cccc(CN2CCCC2)c1
19,0.0014,CCOC(=O)Cn1c(=O)n(Cc2ccc(C)cc2)c(=O)c2cccnc21

row,solubility kinetic [mg/mL],SMILES
1,0.0063,CNS(=O)(=O)c1cc2c3c(cccc3c1)C(=O)NC2=O
2,> 0.0452,Cc1cccc(OCc2ccc(C(=O)N3CCOCC3)o2)c1
3,> 0.041,O=C1N=C(N2CCCCC2)S/C1=C\c1ccncc1
4,0.0488,COC(=O)CC1C(=O)NCCN1C(=O)Nc1cccc(Cl)c1 (centres undefined)
5,0.0122,Cc1ccsc1CN1CC(=O)N(c2c(C)cccc2C)C1=S
6,> 0.0514,COc1ccc(C)cc1N(CC(=O)N1CCOCC1)S(C)(=O)=O
7,0.0567,COc1cccc(N2CCN(C(=O)CCNS(=O)(=O)c3ccc(F)c(F)c3)CC2)c1
8,> 0.0466,O=C1CC(N2CCSCC2)C(=O)N1c1cccc(Cl)c1 (centres undefined)
9,> 0.0464,Cc1ccc(CN2CC(C(=O)Nc3ccncc3)CC2=O)cc1 (centres undefined)
10,> 0.0403,CC(=O)N1CCN=C1SCc1cccc(Cl)c1
11,> 0.0494,CS(=O)(=O)c1ccc(C(=O)OC2CCOC2=O)cc1[N+](=O)[O-] (centres undefined)
12,> 0.0505,O=c1c2ccccc2n(CC(O)CN2CCCCC2)c2ccccc12 (centres undefined)
13,> 0.0375,Cc1cc(=O)[nH]c(Nc2cccc(Cl)c2C)n1
14,0.0006,O=S(=O)(c1ccc(Cl)cc1)N1CCC(n2cccc2)CC1
15,0.0396,O=C(Cc1c(F)cccc1Cl)OCC(=O)N1CCN(c2ccccc2)CC1
16,0.0518,C=CCn1c(O)c(C=Nc2ccc(CN3CCCCC3)cc2)c(=O)[nH]c1=S
17,0.0287,CC(C(=O)Nc1ccc(S(=O)(=O)N2CCCC2)cc1)N(C)CC(=O)Nc1cccc(F)c1 (centres undefined)
18,> 0.0466,COc1cccc(NC(=O)C(c2ccccc2)N2CCCC2)c1 (centres undefined)
19,0.0057,O=C(Nc1ccc(Br)cn1)c1cccc(S(=O)(=O)N2CCCC2)c1
